Measurements: US20120015886A1, “METHOD FOR PREPARING RECOMBINANT PEPTIDE FROM SPIDER VENOM AND METHOD FOR RELIEVING PAIN” (priority 2005, published 2012)
Where no end group is shown, it is not given here.

Tests used:
carrageenan-treated mice [1] = assay: Randall-Selitto test, mechanical hyperalgesia heightened by carrageenan; assay type: in vivo
Description: In order to probe mechanical hyperalgesia in mice, the present inventors conducted the Randall-Selitto test, in which severe mechanical stress is applied to inflict pain. In detail, force is applied to a sharp-ended rod in touch with a hind paw of a mouse. As a measure of pain sensitivity, the weight of the rod at the pain threshold is recorded.
(§1) A cone-shaped rod was placed at one of the hind paws of mice treated with GsMTx4 and force was applied. […] A pain response was characterized as either raising the hind paw, rolling up the tail, or making a shrill sound.
(§2) Two groups of 8 mice each were injected with either physiological saline solution or the pain inducer carrageenan (2% solution, 50 μL, intraplantar) at their hind paws. After the first injection, either GsMTx4 (40 μg/150 g body weight) or for the positive control group, morphine (1.5 mg/150 g) was intraperitoneally injected to these mice. The Randall-Selitto test was carried out 4 hours later. Mechanical stimuli were applied in an area in the paw between the thumb and index finger. Threshold weight data were represented as percentage values against the threshold weight for mice treated saline solution (negative control).

carrageenan-treated mice [2] = assay: von Frey test, mechanical allodynia heightened by carrageenan; assay type: in vivo
From the text: Mechanical stimuli were applied in an area in the paw between the thumb and index finger.

carrageenan-treated mice [3] = assay: Weight-bearing test; assay type: in vivo
Description: In order to monitor behavioral changes brought by complex mechanical stimuli, the present inventors conducted the weight-bearing test, in which complex mechanical pain is assessed as the stimulus is varied. In detail, one the hind limbs of a mouse was injected with pain inducers such as carrageenan and formalin to incur pain. In such a case, the mouse puts less weight in the injected hind limb, but puts more weight than usual in the other, normal hind limb and this difference in weight is recorded as a measure of pain.
More specifically, the principles behind this test are as follows. When a mouse receives an injection of pain inducers in only one of the hind paws, it puts more weight than usual in the other hind paw. This difference in the weight balance serves as a measure of the mouse's pain. In the present example, such weight difference per unit body weight of the mouse was reported for comparison.
Two groups of 8 mice each received an intraplantar injection of either 2% carrageenan (50 μL) or for the negative control group, physiological saline solution (100 μL) at only one of their hind paws. To the carrageenan-treated mice, either GsMTx4 (40 μg/150 g body weight) or for the positive control group, morphine (10 mg/150 g) was intraperitoneally and their weight balances were monitored 1 to 6 hours later.

[4] = tested on: mice that did not receive carrageenan; assay: Randall-Selitto test, mechanical high-pressure stimuli, no pain inducer; assay type: in vivo; conditions: mice without carrageenan; compared to intraplantar saline and intraperitoneal morphine groups
Description: as §1, §2

[5] = tested on: mice that did not receive carrageenan; assay: von Frey test, mechanical low-pressure stimuli, no pain inducer; assay type: in vivo; conditions: mice without carrageenan; compared to intraplantar saline and intraperitoneal morphine groups
Description: The present inventors conducted the von Frey test in order to see whether GsMTx4 of this invention has an analgesic effect against rubbing or other weak mechanical stimuli inside a living body. When a pain inducer is administered only to one of the hind paws of a mouse, the affected paw becomes sensitive and feels pain from even small mechanical stimuli. The von Frey test involves measuring the weight difference at the pain threshold between the two hind paws as one varies the width of the von Frey hair involved in giving the stimuli (http://www.2biol.com/2biol analgesia.htm; Pitcher, G. M. et al., Journal of Neuroscience Methods 87(2):185˜193, 1999).
Two groups of 8 mice each received a 50-μL intraplantar injection of either physiological saline solution or 2% carrageenan at only one of their hind paws. After the first injection, either GsMTx4 (40 μg/150 g body weight) or for the positive control group, morphine (10 mg/150 g) was intraperitoneally injected to these mice. These mice were rubbed with von Frey hairs a half to 4 hours later.
Mechanical stimuli were applied in an area in the paw between the thumb and index finger. Threshold weight data were represented as percentages against the threshold weight for mice treated saline solution (negative control).

[6] = tested on: mice with neuropathic pains; assay: von Frey test under a neuropathic pain model; assay type: in vivo; conditions: tibial and sural nerves cut; 50 μg/200 g body weight; 4 hours after injection; versus saline control
From the text: Neuropathic pain was induced to mice according to the method reported by Lee and others (Lee, B. et al., Neuroreport 11:657˜661, 2000). Mice were put under anesthesia and their skin was excised in the thighs to expose the tibial, sural and common peroneal nerves. Out of these, the tibial and sural nerves were bound together and cut off. Mice were then allowed to recuperate for 6 days after the operation and the monitoring for the presence of neuropathic pain began 1 week after the operation. The analgesic effect of GsMTx4 on those mice suffering from neuropathic pain was tested by the von Frey test as in Example 9.
Mice with neuropathic pains were divided into two groups of 9. To the first group, GsMTx (50 μg/200 g body weight) was injected and to the second group, physiological saline solution for control. 4 hours after the injection of GsMTx4, mechanical stimuli were applied to these mice with von Frey filaments. The width of the von Frey filament that evoked a nociceptic (flexor) reflex was recorded before and after the surgery, and the data was expressed as the percentage of the latter width in relation to the former.

mice = assay: Tail flick test, temperature stimuli; assay type: in vivo; conditions: no pain inducer; GsMTx4 40 μg/150 g intraperitoneal; compared to morphine 10 mg/150 g; 30 to 4 hours later
From the text: The present inventors looked into GsMTx4 for its possible analgesic activity on pain from temperature stimuli. Mice were irradiated with infrared in their tails and monitored for their endurance against heat (tail flick test). The analgesic effect of GsMTx4 was examined by comparing data from a group of mice suffering from induced pain with those from a non-induced group (Pitcher G. M. et al., Journal of Neuroscience Methods, 87(2):185˜193, 1999).
Three groups of 8 mice each respectively received an intraperitoneal injection of either physiological saline solution (100 μL) as the negative control, or morphine (10 mg/150 g body weight) as the positive control, or GsMTx4 (40 μg/150 g). They were then subject to the tail flick test 30 to 4 hours later.

cell swelling = conditions: Sachs et al., J. Gen. Physiol. 2000; cited from earlier work
[7] = tested on: stretch-activated channels (SACs); conditions: administered to the hearts of rabbits after atrial fibrillation was induced with high level stress; cited from earlier work
[8] = carrageenan-treated mice, GsMTx4 40 μg/150 g intraperitoneal

Row | Molecule | pain sensitivity threshold (carrageenan-treated mice [1]; mouse, in vivo, ip) | hypersensitivity (pain threshold for hair force) (carrageenan-treated mice [2]; mouse, in vivo, ip) | weight difference between hind limbs (carrageenan-treated mice [3]; mouse, in vivo, ip) | pain sensitivity threshold (carrageenan-treated mice [1]; 2% carrageenan 50 μL intraplantar, intraperitoneal GsMTx4 40 μg/150 g body weight or morphine 1.5 mg/150 g) | time after injection at which the analgesic effect occurred (carrageenan-treated mice [1]; [8]) | time the analgesic effect lasted (carrageenan-treated mice [1]; [8]) | analgesic effect against mechanical high pressure [4] | hypersensitivity (pain threshold for hair force) (carrageenan-treated mice [2]; 2% carrageenan 50 μL intraplantar, intraperitoneal GsMTx4 40 μg/150 g or morphine 10 mg/150 g, a half to 4 hours later) | analgesic effect against mechanical low pressure [5] | weight difference between hind limbs (carrageenan-treated mice [3]; 2% carrageenan 50 μL intraplantar, GsMTx4 40 μg/150 g or morphine 10 mg/150 g intraperitoneally, 1 to 6 hours later) | reflex threshold against mechanical stimuli (von Frey filaments) [6] | analgesic activity against temperature stimuli (mice) | effect on cell swelling associated with congestive heart failure (cell swelling) | effect on atrial fibrillation [7]
1 | CN1CC[C@]23c4c5ccc(O)c4O[C@H]2[C@@H](O)C=C[C@H]3[C@H]1C5 [morphine, reference compound] | increased back substantially | reduce hypersensitivity | reverted back to a low value |  |  |  |  |  |  |  |  |  |  | 
2 | GsMTx4: Spider toxin peptide of 34 amino acids (SEQ. ID NO 1), 3 disulfide bonds, mechanosensitive ion channel inhibitor; produced recombinantly in Pichia pastoris (GCLEFWWKCNPNDDKCCRPKLKCSKLFKLCNFSF; disulfide (positions not given here); not fully specified (bridges); ends not checked; listed as Grammostola spatulata) |  |  |  | increased back substantially | 30 min | approximately 4 hours | evident | reduce hypersensitivity | observed, albeit weakly | reverted back to a low value | elevation of the reflex threshold | either negligible or no analgesic activity | prevent cell swelling | relieve symptoms of atrial fibrillation
